Article PMC6327487, “A cytosolic NAD^+-dependent GPDH from maize (ZmGPDH1) is involved in conferring salt and osmotic stress tolerance” (BMC Plant Biology, 2019)

T1: ZmGPDH1 (Zea mays, UniProt A0A345VNI6)
T1 construct: gene GPDH1; full-length CDS (458 residues, 51 kDa; 1377 bp) in pET32a(+) NcoI/XhoI, 6xHis fusion of about 65 kDa, E. coli Rosetta (DE3), Ni-NTA
T1 sequence (A0A345VNI6 1-458): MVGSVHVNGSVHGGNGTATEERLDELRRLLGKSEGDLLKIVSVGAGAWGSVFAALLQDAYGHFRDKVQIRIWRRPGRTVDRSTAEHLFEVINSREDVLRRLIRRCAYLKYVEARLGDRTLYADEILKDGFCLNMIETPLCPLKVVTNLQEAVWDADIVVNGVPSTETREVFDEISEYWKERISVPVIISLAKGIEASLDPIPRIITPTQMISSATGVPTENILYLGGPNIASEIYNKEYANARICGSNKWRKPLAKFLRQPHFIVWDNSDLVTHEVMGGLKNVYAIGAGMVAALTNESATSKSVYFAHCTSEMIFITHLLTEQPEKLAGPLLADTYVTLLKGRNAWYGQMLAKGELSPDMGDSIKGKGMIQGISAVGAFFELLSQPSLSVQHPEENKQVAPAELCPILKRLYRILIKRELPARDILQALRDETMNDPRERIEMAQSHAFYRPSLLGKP


Key:
[1] = molecular target: T1, ZmGPDH1; experiment: GPDH activity with and without NADH; format: biochemical; details: 4 mM DHAP, 0.2 mM NADH, 100 mM HEPES pH 6.9 (general assay)
[2] = substrate: O=C(CO)COP(=O)(O)O; experiment: purified protein; format: biochemical, Zea mays; details: DHAP reduction, 0.2 mM NADH, 100 mM HEPES pH 6.9 (general assay)

Row | Molecule | GPDH activity with and without NADH [1] | Km [2] [µM]
1 | NC(=O)C1=CN([C@@H]2O[C@H](COP(=O)(O)OP(=O)(O)OC[C@H]3O[C@@H](n4cnc5c(N)ncnc54)[C@H](O)[C@@H]3O)[C@@H](O)[C@H]2O)C=CC1 [NADH] | addition of NADH strongly stimulated the enzyme activity | –
2 | ZmGPDH1 (Zea mays subsp. mays) (protein, full-length CDS (458 residues, 51 kDa; 1377 bp) in pET32a(+) NcoI/XhoI, 6xHis fusion of about 65 kDa, E. coli Rosetta (DE3), Ni-NTA) MVGSVHVNGSVHGGNGTATEERLDELRRLLGKSEGDLLKIVSVGAGAWGSVFAALLQDAYGHFRDKVQIRIWRRPGRTVDRSTAEHLFEVINSREDVLRRLIRRCAYLKYVEARLGDRTLYADEILKDGFCLNMIETPLCPLKVVTNLQEAVWDADIVVNGVPSTETREVFDEISEYWKERISVPVIISLAKGIEASLDPIPRIITPTQMISSATGVPTENILYLGGPNIASEIYNKEYANARICGSNKWRKPLAKFLRQPHFIVWDNSDLVTHEVMGGLKNVYAIGAGMVAALTNESATSKSVYFAHCTSEMIFITHLLTEQPEKLAGPLLADTYVTLLKGRNAWYGQMLAKGELSPDMGDSIKGKGMIQGISAVGAFFELLSQPSLSVQHPEENKQVAPAELCPILKRLYRILIKRELPARDILQALRDETMNDPRERIEMAQSHAFYRPSLLGKP | – | 2750
